Measurements as given in patent publication US10745384B2, “Indazole derivatives as αv integrin antagonists” (BRISTOL-MYERS SQUIBB COMPANY, priority 2016, dated 2020).

The molecules below were run against T1, human αVβ6 (Homo sapiens, UniProt P06756+P18564) (assay: human αVβ6 HTRF binding assay). Conditions: recombinant human αVβ6 integrin, FITC-conjugated fibronectin.
T1 construct: purchased R & D systems 3817-AV
In short: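 HTRF binding in 20 mM Tris pH 7.4 with 1 mM MgCl2, 1 mM MnCl2, 0.01% Tween 20 and 0.01% BSA. For αVβ6, biotinylated integrin (1.25 nM) and FITC-fibronectin (5 nM) were incubated 1 h at RT, then streptavidin-terbium (0.625 nM) was added overnight in the dark. An SPA-based fibronectin binding format was an alternative.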

T1 sequence (P06756 31-992 limits assumed): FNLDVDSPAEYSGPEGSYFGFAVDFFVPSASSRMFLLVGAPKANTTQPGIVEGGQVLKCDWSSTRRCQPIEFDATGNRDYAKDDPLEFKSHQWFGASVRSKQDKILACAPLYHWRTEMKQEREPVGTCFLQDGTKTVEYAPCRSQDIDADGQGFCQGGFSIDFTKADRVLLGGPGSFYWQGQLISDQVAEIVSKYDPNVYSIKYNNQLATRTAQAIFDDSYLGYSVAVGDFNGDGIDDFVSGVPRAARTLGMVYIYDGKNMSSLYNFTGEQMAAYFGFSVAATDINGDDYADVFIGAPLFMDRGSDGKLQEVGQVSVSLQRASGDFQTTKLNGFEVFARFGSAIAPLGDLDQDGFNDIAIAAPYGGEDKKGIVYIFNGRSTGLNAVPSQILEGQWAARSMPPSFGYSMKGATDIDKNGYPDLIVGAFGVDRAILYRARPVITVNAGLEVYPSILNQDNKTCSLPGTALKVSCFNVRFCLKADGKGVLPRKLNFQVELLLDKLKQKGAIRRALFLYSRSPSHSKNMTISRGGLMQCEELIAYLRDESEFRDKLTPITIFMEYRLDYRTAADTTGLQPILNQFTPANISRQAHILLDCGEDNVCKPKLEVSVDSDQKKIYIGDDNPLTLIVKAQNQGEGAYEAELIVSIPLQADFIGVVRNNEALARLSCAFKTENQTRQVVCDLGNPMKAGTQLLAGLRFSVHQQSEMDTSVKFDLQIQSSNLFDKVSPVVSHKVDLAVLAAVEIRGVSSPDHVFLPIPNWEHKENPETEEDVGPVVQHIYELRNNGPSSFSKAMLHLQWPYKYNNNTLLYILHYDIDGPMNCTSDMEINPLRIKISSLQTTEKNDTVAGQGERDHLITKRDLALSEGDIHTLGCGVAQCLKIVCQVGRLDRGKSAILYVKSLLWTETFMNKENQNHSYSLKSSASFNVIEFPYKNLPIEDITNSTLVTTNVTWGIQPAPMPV
T1 sequence (P18564 22-707 limits assumed): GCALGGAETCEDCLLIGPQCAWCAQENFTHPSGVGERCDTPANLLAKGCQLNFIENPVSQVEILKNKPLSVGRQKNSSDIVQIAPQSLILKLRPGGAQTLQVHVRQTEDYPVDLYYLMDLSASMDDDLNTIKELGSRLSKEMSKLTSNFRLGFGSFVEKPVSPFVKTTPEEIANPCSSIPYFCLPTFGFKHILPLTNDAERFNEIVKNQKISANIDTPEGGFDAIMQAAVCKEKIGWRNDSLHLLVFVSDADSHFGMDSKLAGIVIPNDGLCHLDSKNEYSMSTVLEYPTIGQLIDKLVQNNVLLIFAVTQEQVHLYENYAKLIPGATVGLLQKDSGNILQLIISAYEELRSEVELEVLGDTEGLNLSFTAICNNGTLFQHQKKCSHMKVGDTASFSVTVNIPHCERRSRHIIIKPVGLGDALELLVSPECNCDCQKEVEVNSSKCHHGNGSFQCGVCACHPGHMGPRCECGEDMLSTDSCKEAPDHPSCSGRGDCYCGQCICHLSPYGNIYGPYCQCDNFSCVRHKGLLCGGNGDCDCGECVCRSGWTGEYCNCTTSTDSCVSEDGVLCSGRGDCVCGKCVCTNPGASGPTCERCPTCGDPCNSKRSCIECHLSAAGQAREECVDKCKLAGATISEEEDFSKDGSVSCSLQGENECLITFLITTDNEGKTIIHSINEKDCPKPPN

Row | SMILES | IC50
1 | O=C(O)C[C@H](c1cncc(C2OCCO2)c1)n1ncc2cc(OCCc3ccc4c(n3)NCCC4)ccc21 [Example 138, (R)-3-(5-(1,3-dioxolan-2-yl)pyridin-3-yl)-3-(5-(2-(5,6,7,8-tetrahydro-1,8-naphthyridin-2-yl)ethoxy)-1H-indazol-1-yl)propanoic acid] | 43 nM
2 | O=C(O)CC(c1cncc(N2CCOCC2)n1)n1ncc2cc(OCCc3ccc4c(n3)NCCC4)ccc21 (stereo not drawn) [Example 142, 3-(6-morpholinopyrazin-2-yl)-3-(5-(2-(5,6,7,8-tetrahydro-1,8-naphthyridin-2-yl)ethoxy)-1H-indazol-1-yl)propanoic acid] | 36 nM
3 | CC(C)(O)c1cncc([C@@H](CC(=O)O)n2ncc3cc(OCCc4ccc5c(n4)NCCC5)ccc32)c1 [Example 145, (R)-3-(5-(2-hydroxypropan-2-yl)pyridin-3-yl)-3-(5-(2-(5,6,7,8-tetrahydro-1,8-naphthyridin-2-yl)ethoxy)-1H-indazol-1-yl)propanoic acid] | 1900 nM
4 | COc1ncc([C@@H](CC(=O)O)n2ncc3cc(OCCc4ccc5c(n4)NCCC5)ccc32)cn1 [Example 147, (R)-3-(2-methoxypyrimidin-5-yl)-3-(5-(2-(5,6,7,8-tetrahydro-1,8-naphthyridin-2-yl)ethoxy)-1H-indazol-1-yl)propanoic acid] | 620 nM
5 | COc1ncc([C@H](CC(=O)O)n2ncc3cc(OCCc4ccc5c(n4)NCCC5)ccc32)cn1 [Example 148, (S)-3-(2-methoxypyrimidin-5-yl)-3-(5-(2-(5,6,7,8-tetrahydro-1,8-naphthyridin-2-yl)ethoxy)-1H-indazol-1-yl)propanoic acid] | 18 nM
6 | COc1cncc(C(CC(=O)O)n2ncc3cc(OCCc4ccc5c(n4)NCCC5)ccc32)n1 (stereo not drawn) [Example 149, 3-(6-methoxypyrazin-2-yl)-3-(5-(2-(5,6,7,8-tetrahydro-1,8-naphthyridin-2-yl)ethoxy)-1H-indazol-1-yl)propanoic acid] | 2300 nM
7 | O=C(O)C[C@H](c1cncc(N2CCCC2=O)c1)n1ncc2cc(OCCc3ccc4c(n3)NCCC4)ccc21 [Example 150, (R)-3-(5-(2-oxopyrrolidin-1-yl)pyridin-3-yl)-3-(5-(2-(5,6,7,8-tetrahydro-1,8-naphthyridin-2-yl)ethoxy)-1H-indazol-1-yl)propanoic acid] | 110 nM
8 | O=C(O)CC(c1cncc(C(=O)N2CCOCC2)c1)n1ncc2cc(OCCc3ccc4c(n3)NCCC4)ccc21 (stereo not drawn) [Example 152, 3-(5-(morpholine-4-carbonyl)pyridin-3-yl)-3-(5-(2-(5,6,7,8-tetrahydro-1,8-naphthyridin-2-yl)ethoxy)-1H-indazol-1-yl)propanoic acid] | 22 nM
9 | CN1CCN(C(=O)c2cncc(C(CC(=O)O)n3ncc4cc(OCCc5ccc6c(n5)NCCC6)ccc43)c2)CC1 (stereo not drawn) [Example 154, 3-(5-(4-methylpiperazine-1-carbonyl)pyridin-3-yl)-3-(5-(2-(5,6,7,8-tetrahydro-1,8-naphthyridin-2-yl)ethoxy)-1H-indazol-1-yl)propanoic acid] | 29 nM
10 | O=C(O)CC(c1cncc(C(=O)N2CCC2)c1)n1ncc2cc(OCCc3ccc4c(n3)NCCC4)ccc21 (stereo not drawn) [Example 157, 3-(5-(azetidine-1-carbonyl)pyridin-3-yl)-3-(5-(2-(5,6,7,8-tetrahydro-1,8-naphthyridin-2-yl)ethoxy)-1H-indazol-1-yl)propanoic acid] | 32 nM
11 | Cc1ncc([C@H](CC(=O)O)n2ncc3cc(OCCc4ccc5c(n4)NCCC5)ccc32)cn1 [Example 159, (S)-3-(2-methylpyrimidin-5-yl)-3-(5-(2-(5,6,7,8-tetrahydro-1,8-naphthyridin-2-yl)ethoxy)-1H-indazol-1-yl)propanoic acid] | 47 nM
12 | Cc1ncc([C@@H](CC(=O)O)n2ncc3cc(OCCc4ccc5c(n4)NCCC5)ccc32)cn1 [Example 160, (R)-3-(2-methylpyrimidin-5-yl)-3-(5-(2-(5,6,7,8-tetrahydro-1,8-naphthyridin-2-yl)ethoxy)-1H-indazol-1-yl)propanoic acid] | 2600 nM
13 | CCCC(CC(=O)O)n1ncc2cc(OCCc3ccc4c(n3)NCCC4)ccc21 (stereo not drawn) [Example 162, 3-(5-(2-(5,6,7,8-tetrahydro-1,8-naphthyridin-2-yl)ethoxy)-1H-indazol-1-yl)hexanoic acid] | 730 nM
14 | O=C(O)CC(C1CCCCC1)n1ncc2cc(OCCc3ccc4c(n3)NCCC4)ccc21 (stereo not drawn) [Example 164, 3-cyclohexyl-3-(5-(2-(5,6,7,8-tetrahydro-1,8-naphthyridin-2-yl)ethoxy)-1H-indazol-1-yl)propanoic acid] | 3200 nM
15 | CS(=O)(=O)c1cncc([C@@H](CC(=O)O)n2ncc3cc(OCCc4ccc5c(n4)NCCC5)ccc32)c1 [Example 165, (R)-3-(5-(methylsulfonyl)pyridin-3-yl)-3-(5-(2-(5,6,7,8-tetrahydro-1,8-naphthyridin-2-yl)ethoxy)-1H-indazol-1-yl)propanoic acid] | 540 nM

Now those with a lower IC50, led by results:

Row | IC50 | SMILES
16 | 4.7 nM | O=C(O)C[C@@H](c1cncc(C2OCCO2)c1)n1ncc2cc(OCCc3ccc4c(n3)NCCC4)ccc21 [Example 139, (S)-3-(5-(1,3-dioxolan-2-yl)pyridin-3-yl)-3-(5-(2-(5,6,7,8-tetrahydro-1,8-naphthyridin-2-yl)ethoxy)-1H-indazol-1-yl)propanoic acid]
17 | 5.7 nM | Cn1cnc2ncc(C(CC(=O)O)n3ncc4cc(OCCc5ccc6c(n5)NCCC6)ccc43)cc21 (stereo not drawn) [Example 140, 3-(1-methyl-1H-imidazo[4,5-b]pyridin-6-yl)-3-(5-(2-(5,6,7,8-tetrahydro-1,8-naphthyridin-2-yl)ethoxy)-1H-indazol-1-yl)propanoic acid]
18 | 8.2 nM | O=C(O)CC(c1cncc(-c2ccn[nH]2)c1)n1ncc2cc(OCCc3ccc4c(n3)NCCC4)ccc21 (stereo not drawn) [Example 141, 3-(5-(1H-pyrazol-5-yl)pyridin-3-yl)-3-(5-(2-(5,6,7,8-tetrahydro-1,8-naphthyridin-2-yl)ethoxy)-1H-indazol-1-yl)propanoic acid]
19 | 9.8 nM | Cn1cc(-c2cncc(C(CC(=O)O)n3ncc4cc(OCCc5ccc6c(n5)NCCC6)ccc43)c2)cn1 (stereo not drawn) [Example 143, 3-(5-(1-methyl-1H-pyrazol-4-yl)pyridin-3-yl)-3-(5-(2-(5,6,7,8-tetrahydro-1,8-naphthyridin-2-yl)ethoxy)-1H-indazol-1-yl)propanoic acid]
20 | 5 nM | CC(C)(O)c1cncc(C(CC(=O)O)n2ncc3cc(OCCc4ccc5c(n4)NCCC5)ccc32)c1 (stereo not drawn) [Example 144, 3-(5-(2-hydroxypropan-2-yl)pyridin-3-yl)-3-(5-(2-(5,6,7,8-tetrahydro-1,8-naphthyridin-2-yl)ethoxy)-1H-indazol-1-yl)propanoic acid]
21 | 5.2 nM | CC(C)(O)c1cncc([C@H](CC(=O)O)n2ncc3cc(OCCc4ccc5c(n4)NCCC5)ccc32)c1 [Example 146, (S)-3-(5-(2-hydroxypropan-2-yl)pyridin-3-yl)-3-(5-(2-(5,6,7,8-tetrahydro-1,8-naphthyridin-2-yl)ethoxy)-1H-indazol-1-yl)propanoic acid]
22 | 1 nM | O=C(O)C[C@@H](c1cncc(N2CCCC2=O)c1)n1ncc2cc(OCCc3ccc4c(n3)NCCC4)ccc21 [Example 151, (5)-3-(5-(2-oxopyrrolidin-1-yl)pyridin-3-yl)-3-(5-(2-(5,6,7,8-tetrahydro-1,8-naphthyridin-2-yl)ethoxy)-1H-indazol-1-yl)propanoic acid]
23 | 17 nM | CN(C)C(=O)c1cncc(C(CC(=O)O)n2ncc3cc(OCCc4ccc5c(n4)NCCC5)ccc32)c1 (stereo not drawn) [Example 153, 3-(5-(dimethylcarbamoyl)pyridin-3-yl)-3-(5-(2-(5,6,7,8-tetrahydro-1,8-naphthyridin-2-yl)ethoxy)-1H-indazol-1-yl)propanoic acid]
24 | 5.3 nM | O=C(O)CC(c1cncc(C2CC2)c1)n1ncc2cc(OCCc3ccc4c(n3)NCCC4)ccc21 (stereo not drawn) [Example 155, 3-(5-cyclopropylpyridin-3-yl)-3-(5-(2-(5,6,7,8-tetrahydro-1,8-naphthyridin-2-yl)ethoxy)-1H-indazol-1-yl)propanoic acid]
25 | 8.8 nM | CN1CCN(c2cncc(C(CC(=O)O)n3ncc4cc(OCCc5ccc6c(n5)NCCC6)ccc43)c2)CC1 (stereo not drawn) [Example 156, 3-(5-(4-methylpiperazin-1-yl)pyridin-3-yl)-3-(5-(2-(5,6,7,8-tetrahydro-1,8-naphthyridin-2-yl)ethoxy)-1H-indazol-1-yl)propanoic acid]
26 | 13 nM | CN(C)CCNC(=O)c1cncc(C(CC(=O)O)n2ncc3cc(OCCc4ccc5c(n4)NCCC5)ccc32)c1 (stereo not drawn) [Example 158, 3-(5-((2-(dimethylamino)ethyl)carbamoyl)pyridin-3-yl)-3-(5-(2-(5,6,7,8-tetrahydro-1,8-naphthyridin-2-yl)ethoxy)-1H-indazol-1-yl)propanoic acid]
27 | 5.5 nM | O=C(O)CC(c1cncc(-n2cccn2)c1)n1ncc2cc(OCCc3ccc4c(n3)NCCC4)ccc21 (stereo not drawn) [Example 161, 3-(5-(1H-pyrazol-1-yl)pyridin-3-yl)-3-(5-(2-(5,6,7,8-tetrahydro-1,8-naphthyridin-2-yl)ethoxy)-1H-indazol-1-yl)propanoic acid]
28 | 3.8 nM | CN(C)c1cncc(C(CC(=O)O)n2ncc3cc(OCCc4ccc5c(n4)NCCC5)ccc32)c1 (stereo not drawn) [Example 163, 3-(5-(dimethylamino)pyridin-3-yl)-3-(5-(2-(5,6,7,8-tetrahydro-1,8-naphthyridin-2-yl)ethoxy)-1H-indazol-1-yl)propanoic acid]
29 | 5.2 nM | CS(=O)(=O)c1cncc([C@H](CC(=O)O)n2ncc3cc(OCCc4ccc5c(n4)NCCC5)ccc32)c1 [Example 166, (S)-3-(5-(methylsulfonyl)pyridin-3-yl)-3-(5-(2-(5,6,7,8-tetrahydro-1,8-naphthyridin-2-yl)ethoxy)-1H-indazol-1-yl)propanoic acid]
30 | 15 nM | COC(=O)NCc1cncc(C(CC(=O)O)n2ncc3cc(OCCc4ccc5c(n4)NCCC5)ccc32)c1 (stereo not drawn) [Example 167, 3-(5-(((Methoxycarbonyl)amino)methyl)pyridin-3-yl)-3-(5-(2-(5,6,7,8-tetrahydro-1,8-naphthyridin-2-yl)ethoxy)-1H-indazol-1-yl)propanoic acid]
